In test [1] the test system is HeLa cells expressing H2B-GFP. The test is described as follows: Perturbation of mitotic spindle organisation and assembly, anti-β-tubulin staining. The test is classed as cell-based, human. As to conditions: 20 μM, overnight. Here is the method: HeLa cells stably expressing a green fluorescent marker of nuclear DNA (H2B-GFP) were exposed overnight to carrier (DMSO) or 20 μM compounds A1 and B3. The cells were then fixed with methanol, stained with mouse monoclonal anti-β-tubulin antibody and Alexafluor 546 nm goat anti-mouse antibody, and fluorescent signal visualised by microscopy. The open circle indicates a cell with a perturbed mitotic spindle while the arrow indicates a cell with a mostly disassembled mitotic spindle.
These cells were exposed overnight to carrier (0.1% (v/v) DMSO) or an equivalent volume of DMSO containing compounds A1 and B3 (final concentration in the culture medium was 20 μM). The cells were then briefly rinsed with phosphate-buffered saline (PBS) prior to fixation with 100% methanol at −20° C. The fixed cells were then stained with mouse monoclonal anti-β-tubulin antibody and Alexafluor 546 nm goat anti-mouse antibody (diluted 400× from commercial stocks into PBS containing 10 mg/ml bovine serum albumin (BSA)). The GFP and 546 nm fluorescence signals were then visualised using a microscope equipped for digital confocal epifluorescence imaging. The open circle in FIG. 1 represents a cell with a perturbed mitotic spindle while the arrow points to a cell with a mostly unassembled mitotic spindle.

Test [2] concerns HeLa cells expressing H2B-GFP. Kind of test: Induction of apoptosis, Annexin V binding. The note with it: overnight; 20 μM compound A1 or 100 nM paclitaxel. The test is classed as cell-based, human. As to the method: HeLa cells were exposed overnight to 20 μM compound A1 or 100 nM paclitaxel, stained with a fluorescent Annexin V marker of apoptosis and visualised by epifluorescence microscopy following fixation.
FIG. 3 The H2B-GFP-expressing HeLa cells were treated overnight with 20 μM compound A1 or 100 nM paclitaxel. The cells were then exposed to Annexin-V tagged with Alexafluor 546 nm and visualized using an epifluorescence microscope equipped for digital imaging following fixation with 4% para-formaldehyde.

Test [3] deals with HeLa cells expressing H2B-GFP. The test is described as follows: Induction of mitotic arrest, phase-contrast microscopy. It is filed as cell-based, human. The note with it: overnight; 20 μM compound B3 or 100 nM paclitaxel. As to the method:
(A) HeLa cells were exposed overnight to carrier (DMSO), 20 μM compound B3 or 100 nM paclitaxel, and visualized by phase-contrast microscopy.
FIG. 2 (A) The H2B-GFP-expressing HeLa cells (grown under identical culture conditions as described in Example 1) were exposed overnight to carrier (0.1% (v/v) DMSO), 20 μM compound B3 or 100 nM paclitaxel in DMSO. The cells were then visualized using a phase-contrast microscope equipped for digital imaging.

The test system of test [4] is HeLa cells expressing H2B-GFP. The test is described as follows: Induction of mitotic arrest, phospho-histone 3 marker of mitosis. It is filed as cell-based, human. As to conditions: 4 hours; 20 μM compound or 100 nM paclitaxel. As to the method:
(B) HeLa cells exposed for 4 hours to carrier (DMSO), 20 μM compound A1 or 100 nM paclitaxel were fixed and stained with anti-phospho-histone 3 marker of mitosis followed by fluorescent secondary antibody. The percentage of cells positive for phospho-histone 3 was determined by digital imaging and analysis of the fluorescence signals (B).
FIG. 2 (B) The H2B-GFP-expressing HeLa cells were treated for 4 hours with carrier (0.1% (v/v) DMSO), 20 μM compound A1 or 100 nM paclitaxel in DMSO. The cells were then briefly rinsed with phosphate-buffered saline (PBS) prior to fixation with 4% para-formaldehyde at ambient temperature. The fixed cells were then stained with mouse monoclonal anti-phospho-histone 3 antibody and Alexafluor 546 nm goat anti-mouse antibody (diluted 400× from commercial stocks into PBS containing 10 mg/ml bovine serum albumin (BSA)). The GFP and 546 nm fluorescence signals were then captured with an IN Cell Analyser 1000 (GE Healthcare) and the percentage of cells stained with the anti-phospho-histone 3 antibody determined using Developer™ software (GE Healthcare).

The test system of test [5] is HeLa cells expressing H2B-GFP. Kind of test: Dose-dependent inhibition of cell proliferation, cell counts over 0-96 h. The test is classed as cell-based, human. The note with it: 0.2-20 μM. Here is the method: FIG. 4. Dose-dependent inhibition of cell proliferation by compound B3. The proliferation of HeLa cells at decreasing concentrations (from 20 to 0.2 μM) of polokinase inhibitor (PKi), KSP inhibitor (STLC) and compound B3 was determined (relative to paclitaxel at 400 to 10 nM) by counting of the cells over time (0-96 h).
FIG. 4 HeLa cells expressing H2B-GFP were plated in multi-well plates and exposed to 0.2-20 μM of polokinase inhibitor (PKi), KSP inhibitor (STLC) and compound B3, or 10-400 nM of paclitaxel. The number of cells at 0, 24, 48, 72 and 96 h of treatment was determined by imaging of the GFP signal in the plates with an IN Cell Analyser (GE Healthcare) followed by measurement of the number of intact cell nuclei using Developer™ software (GE Healthcare).

Test [6] has as its system HeLa cells expressing H2B-GFP. Kind of test: Inhibition of cell proliferation (GI50) by nuclear counts, IN Cell Analyser. As to conditions: HeLa. It is filed as cell-based, human. As to the method: Table 3 HeLa cells expressing H2B-GFP were plated in 96-well plates and exposed to concentrations ranging from 100 μM to […] of the indicated compounds C1-C78. The number of cells was then determined every 24 hours by imaging of the plates using an IN Cell Analyser (GE Healthcare), followed by measurement of the number of intact cell nuclei using Developer™ software (GE Healthcare). Drug concentrations that cause 50% inhibition of cell proliferation (GI50) were determined from the nuclear counts using GraphPad Prism software or ED50v10 freeware.

The test system of test [7] is HeLa cells expressing H2B-GFP. The test is described as follows: Induction of mitotic arrest (EC50), mitotic index by phospho-histone 3 staining. The test is classed as cell-based. The note with it: Homo sapiens, concentration for 50% induction of mitotic arrest, overnight, values in nM, read-out: EC50 (mitosis) (HeLa). Here is the method:
Parallel plates were treated overnight with the compounds to visualize the mitotic cells by staining with anti-phospho-histone 3 and Alexafluor 546 nm secondary antibodies after fixation with 4% paraformaldehyde. Following imaging of the nuclear GFP and phospho-histone 3 signals using an IN Cell Analyser (GE Healthcare), determination of the mitotic index by analysis of the images with Developer™ software (GE Healthcare) permitted estimation of the concentration that leads to 50% induction of the mitotic arrest (EC50). It can be seen that inhibition of cell proliferation and mitosis correlate well for the compounds tested.

The test system of test [8] is purified porcine brain tubulin. The test is described as follows: In vitro microtubule assembly, light scattering at 350 nm. It is filed as biochemical. The note with it: 3 and 6 μM, 37° C. As to the method:
In vitro polymerisation of purified porcine brain tubulin at 37° C. in the presence of compound C9 (3 and 6 μM), 15 μM nocodazole, 2 μM vinblastine or an equal volume of carrier DMSO was measured over time as light scattering at 350 nm.

The test system of test [9] is Vascular endothelium MS-1 cells. Kind of test: Disruption of the microtubule cytoskeleton of vascular endothelium cells. It is filed as cell-based. The note with it: 100 nM, 120 minutes. The source says:
After staining with Hoescht, TRITC-phalloidin, anti-beta tubulin antibody and Alexafluor 488 nm secondary antibody, the cells were imaged at 400× magnification by epifluorescence microscopy.

Test [10] shares this test system. Kind of test: Disruption of vascular endothelium cell adhesion (cell capillaries on Matrigel). It is filed as cell-based. The note with it: 300 nM, 60 minutes. As to the method:
Following the addition of 300 nM compound C9 or an equivalent volume of DMSO carrier for 60 minutes, the extracellular matric plugs were imaged at 40× magnification by phase contrast microscopy.

SMILES strings stand for the structures.

In general, GI50 refers to the concentration giving 50% growth inhibition. The low end stands for greater sensitivity of the cells, the high end for lower sensitivity of the cells. By EC50 is commonly meant the concentration that produces a half-maximal response.

Consider `Fc1ccc(NC(=S)N/N=C/c2ccccc2)cc1` [A1, BENZALDEHYDE N-(4-FLUOROPHENYL)THIOSEMICARBAZONE], for which the “Effect on mitotic spindle organisation and assembly” value in test [1] is “substantial alterations in the spatial organisation of mitotic spindle fibres and chromosomes”. In test [2], the “Induction of apoptotic cells (Annexin-V binding)” value is “induction of apoptotic cells”.

As for `COc1ccccc1/C=N/NC(=S)Nc1cccc(C)c1` [B3, 2-METHOXYBENZALDEHYDE N-(3-METHYLPHENYL)THIOSEMICARBAZONE], the “Effect on mitotic spindle organisation and assembly” value in test [1] is reported as “profoundly perturbs spindle function by blocking the assembly of spindle microtubule fibres”. Besides, in test [3], the “Accumulation of cells with mitotic phenotype” value is “pronounced accumulation of round and translucent cells representing the mitotic phenotype”. The “Accumulation of cells stained with phospho-histone 3 marker of mitosis” value in test [4] is listed as “accumulation of cells that are stained with the phospho-histone 3 marker of mitosis”. The “Concentration potently blocking cell proliferation” value in test [5] was greater than 1 µM.

Consider `COc1ccccc1/C=N/NC(=S)Nc1ccccc1C(F)(F)F` [C9], for which the “Anti-proliferative activity (effect of substitution, in words)” value in test [6] (text comment on Table 3) is reported as “greatly increase the anti-proliferative activity”. The compound further had a concentration for 50% growth inhibition (GI50) in [6] (Homo sapiens, concentration causing 50% inhibition of cell proliferation, nuclear counts every 24 hours) of 10 nM. In addition, in test [7], the EC50 came to 10 nM. For the same compound, the “Inhibition of in vitro microtubule assembly” value in [8] was “Dose-dependent inhibition of in vitro microtubule assembly”. For the same compound, the “Disruption of the microtubule cytoskeleton” value in [9] is given as “Disruption of the microtubule cytoskeleton of vascular endothelium cells”. Besides, the “Disruption of vascular endothelium cell adhesion” value in test [10] is on record as “Disruption of vascular endothelium cell adhesion”.

Consider `CC(=O)O[C@H]1C(=O)[C@@]2(C)[C@H]([C@H](OC(=O)c3ccccc3)[C@]3(O)C[C@H](OC(=O)[C@H](O)[C@@H](NC(=O)c4ccccc4)c4ccccc4)C(C)=C1C3(C)C)[C@]1(OC(C)=O)CO[C@@H]1C[C@@H]2O` [paclitaxel, reference compound], for which the “Accumulation of cells with mitotic phenotype” value in test [3] is “pronounced accumulation of round and translucent cells representing the mitotic phenotype”. Besides, in test [4], the “Accumulation of cells stained with phospho-histone 3 marker of mitosis” value is listed as “accumulation of cells that are stained with the phospho-histone 3 marker of mitosis”. In [2], the “Induction of apoptotic cells (Annexin-V binding)” value was “induction of apoptotic cells”.
